In patent US20210145830A1, “MATERIALS AND METHODS FOR TREATING CANCER” (Mayo Foundation for Medical Education and Research, priority 2018, published 2021):
Entries after “also recorded” stand apart in the source; their conditions may differ.

Key:
Blood T cells = assay: Correlative analysis of blood T cells in Phase I trial of TP0903 (NCT02729298); format: in vivo, patients with solid tumors
Text: FIG. 20. Multiparametric flow cytometric analysis of peripheral blood samples obtained before and after TP0903 treatment in patients with advanced solid tumors. A. Representative CD4^+CD25^+Foxp3^+ regulatory T cells (Treg) (upper right quadrants) at baseline (left) and after treatment (right). Data were pooled from three independent experiments with peripheral blood mononuclear cells from three donors. B. Representative flow plot of CD4^+ and CCR6^− negative cells.
The preclinical findings were validated in a correlative analyses of Phase I clinical trial of TP0903 for patients with solid tumors (NCT02729298). Blood T cells from 3 patients were isolated and analyzed before and a week after treatment with TP0903. […] These findings are further investigated in a Phase I clinical trial of TP0903 in relapsed/refractory CLL (NCT03572634).

CART19 = CART19 proliferation assay in the presence of TP0903; format: cell-based; conditions: 5 days
Protocol: FIG. 2 contains an exemplary timeline for a CART19 proliferation assay in the presence of TP0903. UTDs or CART19 were incubated with Jeko in the presence of TP0903 in 1:1 ratio. At day 5, total T cell numbers were evaluated with CountBright quantification.
T cells were washed and re-suspended at 1×10^7/mL in 100 μL of phosphate-buffered saline and labeled with 100 μL of carboxyfluorescein succinimidyl ester (CFSE) 2.5 μM (Life Technologies) for 5 minutes at 37° C. The reaction was then quenched with cold R10, and the cells were washed three times. Targets were irradiated at a dose of 100 Gy. T cells were incubated at a 1:1 ratio with irradiated target cells for 120 hours. Cells were then harvested, stained for CD3, CAR and Live Dead aqua (Invitrogen), and Countbright beads (Invitrogen) were added prior to flow cytometric analysis.
UTDs or CART19 were incubated with Jeko cell line or primary CLL cells in the presence of TP0903, at 1:1 ratio for 5 days. At the end of the experiment, cells were harvested and stained for CD3, live dead staining was performed, and counti bright beads were added prior to flow cytometric analyses (FIG. 2). Absolute T cell numbers were calculated based on this. […] Low doses of TP0903 (10 nM) increased the number of CART19 cells. A high dose of TP0903 (>100 nM) decreased the number of CART19.

[1] = 3 patients, before vs a week after treatment
[2] = CD4+ CCR6− cells, after TP0903 treatment

CN1CCN(Cc2ccc(Nc3ncc(Cl)c(Nc4ccccc4S(=O)(=O)N(C)C)n3)cc2)CC1 [TP0903]
Th phenotype (Blood T cells; [1]): polarization to a Th1 phenotype | Tregs (Blood T cells; [1]): significant reduction | inhibitory receptors (Blood T cells; [1]): reduction | CXCR3+CCR4+ (double positive) fraction (Blood T cells; [2]): increase | CXCR3−CCR4+ fraction (Th2) (Blood T cells; [2]): Remarked reduction | CART cell specific proliferation (CART19; 1:1 with Jeko or primary CLL cells): did not impair; also recorded: does not inhibit | number of CART19 cells (CART19; high dose of TP0903 (>100 nM)): decreased | number of CART19 cells (CART19; low doses of TP0903 (10 nM)): increased
